# Reference: patent US12174198B2, “Methods of characterizing condensate-associated characteristics of compounds and uses thereof” (Dewpoint Therapeutics, Inc., priority 2019, dated 2024)
# Columns and labels:
# Format in all cases: physicochemical
# [1] = test system: FUS-SNAP condensates versus PGL-3 condensates; assay: Condensate preference: ratio of FUS-SNAP I-in:I-out to PGL-3 I-in:I-out; settings: average FUS-SNAP I-in:I-out divided by average PGL-3 I-in:I-out
# Procedure: (§1) The ratios of the average intensity measured in the target condensates and outside of the target condensates were calculated by dividing I-in by I-out, although dividing I-out by I-in could also have been used. The I-in:I-out ratios determined from the two different days of experiments were then averaged. The average I-in:I-out ratios for FUS-SNAP condensates are shown in FIG. 3 and the average I-in:I-out ratios for PGL-3 condensates are shown in FIG. 4. The standard deviation between the two experiments is represented by the error bars in FIG. 3 and FIG. 4.
# PGL-3 condensates = target: T1, PGL-3 condensates (Caenorhabditis elegans, UniProt G5EBV6); assay: Fluorescence imaging of dye partitioning in PGL-3 condensates (I-in, I-out); settings: for Intensity Inside with Dye Average / Intensity Inside with Dye 1 / Intensity Inside with Dye 2 / Intensity Inside with Dye 3 / Intensity Inside Dye-No Dye: inside PGL-3 condensate; for Intensity Inside with Dye Average / Intensity Inside with Dye 1 / Intensity Inside with Dye 2 / Intensity Inside with Dye 3 / Intensity Outside with Dye Average / Intensity Outside with Dye 1 / Intensity Outside with Dye 2 / Intensity Outside with Dye 3: 5 μM protein; for Intensity Inside with Dye Average / Intensity Outside with Dye Average: average of three images; for Intensity Inside with Dye Average / Intensity Inside with Dye 1 / Intensity Inside with Dye 2 / Intensity Inside with Dye 3 / Intensity Inside Dye-No Dye / Intensity Outside with Dye Average / Intensity Outside with Dye 1 / Intensity Outside with Dye 2 / Intensity Outside with Dye 3 / Intensity Outside (Dye-No Dye): one day of experiments; for Intensity Inside with Dye 1 / Intensity Outside with Dye 1: image 1; for Intensity Inside with Dye 2 / Intensity Outside with Dye 2: image 2; for Intensity Inside with Dye 3 / Intensity Outside with Dye 3: image 3; for Intensity Inside Dye-No Dye / Intensity Outside (Dye-No Dye): background corrected; for Intensity Outside with Dye Average / Intensity Outside with Dye 1 / Intensity Outside with Dye 2 / Intensity Outside with Dye 3 / Intensity Outside (Dye-No Dye): outside PGL-3 condensate
# T1 sequence (G5EBV6 1-693): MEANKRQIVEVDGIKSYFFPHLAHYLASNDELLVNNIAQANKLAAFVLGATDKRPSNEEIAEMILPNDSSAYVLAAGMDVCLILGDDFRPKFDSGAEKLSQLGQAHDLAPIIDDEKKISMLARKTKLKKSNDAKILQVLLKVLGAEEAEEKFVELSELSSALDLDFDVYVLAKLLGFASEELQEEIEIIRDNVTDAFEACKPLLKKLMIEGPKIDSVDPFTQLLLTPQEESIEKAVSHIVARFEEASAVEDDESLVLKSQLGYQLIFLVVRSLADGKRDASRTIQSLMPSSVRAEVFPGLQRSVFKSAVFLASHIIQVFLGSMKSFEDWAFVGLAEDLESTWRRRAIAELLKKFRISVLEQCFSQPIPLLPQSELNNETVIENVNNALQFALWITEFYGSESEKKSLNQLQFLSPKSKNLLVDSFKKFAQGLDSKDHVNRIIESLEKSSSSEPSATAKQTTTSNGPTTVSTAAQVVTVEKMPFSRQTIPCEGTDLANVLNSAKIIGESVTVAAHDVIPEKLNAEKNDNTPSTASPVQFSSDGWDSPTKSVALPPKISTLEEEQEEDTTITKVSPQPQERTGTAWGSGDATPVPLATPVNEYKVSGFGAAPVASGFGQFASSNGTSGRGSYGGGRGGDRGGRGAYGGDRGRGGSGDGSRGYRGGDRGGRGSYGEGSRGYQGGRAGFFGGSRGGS
# Procedure: (§2) All dye-stocks were stored as 1 mM solutions in 100% DMSO. The dyes were dissolved in dilution buffer (DB: 14.7 mM Tris, pH 7.25, 1 mM DTT) to yield 11.765 μM dye in 1.1765 DMSO. 17 μl of dye was distributed in a 384 well non-binding plate (Greiner).
# (§3) Either SNAP-tagged FUS protein or tag-free PGL-3 protein was thawed at room temperature for at least 10 min, and the buffer was exchanged to partitioning buffer (PB: 50 mM Tris pH 7.25, 500 mM KCl, 5% Glycerol, and 1 mM DTT). The protein was then diluted to 33.3 μM in PB. 3 μl of protein solution were added to the 384 well plate to initiate phase separation, yielding 20 μl of 5 μM protein and 10 μM dye in 75 mM KCl, 0.75% Glycerol, 20 mM Tris, 1 mM DTT, and 1% DMSO or for no dye control reactions, 20 μl of 5 μM protein in 75 mM KCl, 0.75% Glycerol, 20 mM Tris, 1 mM DTT.
# (§4) A spinning disk confocal microscope was used to acquire images of the samples. A 60×oil high-NA objective lens was used to capture the condensate droplets. The laser power was set to 20% and the exposure times were adjusted to the fluorescence emission intensity specific for each dye. Exposure times ranged from 1-1000 ms. Appropriate filter settings were used, matching the excitation and emission spectra of the respective dyes. Three images per well were taken. The background signal of protein droplets in the absence of dye was recorded for all applied imaging conditions.
# (§5) Fluorescence intensity was measured inside one exemplary target condensate (Intensity inside, I-in) per image and in a region next to the exemplary target condensate (Intensity outside, I-out) by hand using the image analysis software Fiji. An example depicting the regions measured is shown FIG. 2A. Three I-in and three I-out values were measured in total for each dye in each experiment and were averaged. The measured I-in and I-out values for FUS-SNAP condensates on one day of experiments are shown in Table 2 and Table 3, respectively. The measured I-in and I-out values for PGL-3 condensates on one day of experiments are shown in Table 4 and Table 5, respectively. All values were background corrected, based on the background images (no dye controls) taken with the same microscope conditions.
# as §1
# FUS-SNAP condensates = target: T2, FUS-SNAP condensates (Homo sapiens, UniProt P35637); assay: Fluorescence imaging of dye partitioning in FUS-SNAP condensates (I-in, I-out); settings: for Ratio of intensity inside:outside FUS-SNAP Condensates Day 1 / Ratio of intensity inside:outside FUS-SNAP Condensates Day 2 / Ratio of intensity inside:outside FUS-SNAP Condensates Average: I-in:I-out; for Ratio of intensity inside:outside FUS-SNAP Condensates Day 1 / Ratio of intensity inside:outside FUS-SNAP Condensates Day 2 / Ratio of intensity inside:outside FUS-SNAP Condensates Average / Intensity Inside with Dye Average / Intensity Inside with Dye 1 / Intensity Inside with Dye 2 / Intensity Inside with Dye 3 / Intensity Outside with Dye Average / Intensity Outside with Dye 1 / Intensity Outside with Dye 2 / Intensity Outside with Dye 3: 10 μM dye; for Ratio of intensity inside:outside FUS-SNAP Condensates Average: average of two days; for Intensity Inside with Dye Average / Intensity Inside with Dye 1 / Intensity Inside with Dye 2 / Intensity Inside with Dye 3 / Intensity Inside Dye-No Dye: inside FUS-SNAP condensate; for Intensity Inside with Dye Average / Intensity Inside with Dye 1 / Intensity Inside with Dye 2 / Intensity Inside with Dye 3 / Intensity Outside with Dye Average / Intensity Outside with Dye 1 / Intensity Outside with Dye 2 / Intensity Outside with Dye 3: 5 μM protein; for Intensity Inside with Dye Average / Intensity Outside with Dye Average: average of three images; for Intensity Inside with Dye Average / Intensity Inside with Dye 1 / Intensity Inside with Dye 2 / Intensity Inside with Dye 3 / Intensity Inside Dye-No Dye / Intensity Outside with Dye Average / Intensity Outside with Dye 1 / Intensity Outside with Dye 2 / Intensity Outside with Dye 3 / Intensity Outside (Dye-No Dye): one day of experiments; for Intensity Inside with Dye 1 / Intensity Outside with Dye 1: image 1; for Intensity Inside with Dye 2 / Intensity Outside with Dye 2: image 2; for Intensity Inside with Dye 3 / Intensity Outside with Dye 3: image 3; for Intensity Inside Dye-No Dye / Intensity Outside (Dye-No Dye): background corrected; for Intensity Outside with Dye Average / Intensity Outside with Dye 1 / Intensity Outside with Dye 2 / Intensity Outside with Dye 3 / Intensity Outside (Dye-No Dye): outside FUS-SNAP condensate
# T2 sequence (P35637 1-526): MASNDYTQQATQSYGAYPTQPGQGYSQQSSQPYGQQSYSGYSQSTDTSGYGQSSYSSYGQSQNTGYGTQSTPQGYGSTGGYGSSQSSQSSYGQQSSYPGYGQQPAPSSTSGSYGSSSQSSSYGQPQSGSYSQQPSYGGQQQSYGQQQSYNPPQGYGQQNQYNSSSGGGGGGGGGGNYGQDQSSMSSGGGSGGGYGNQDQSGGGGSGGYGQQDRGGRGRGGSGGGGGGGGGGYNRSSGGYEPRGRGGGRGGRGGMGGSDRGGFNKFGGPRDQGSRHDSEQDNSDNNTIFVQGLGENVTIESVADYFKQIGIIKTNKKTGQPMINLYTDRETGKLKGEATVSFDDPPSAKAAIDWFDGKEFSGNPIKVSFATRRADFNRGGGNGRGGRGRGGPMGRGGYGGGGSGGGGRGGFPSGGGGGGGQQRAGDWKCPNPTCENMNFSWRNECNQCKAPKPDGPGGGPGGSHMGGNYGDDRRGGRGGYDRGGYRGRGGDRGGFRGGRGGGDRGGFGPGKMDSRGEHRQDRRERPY
# Procedure: as §2, §3, §4, §5, §1
Compound,"Ratio of intensity inside:outside PGL-3 Condensates Day 2 (PGL-3 condensates; I-in:I-out, 10 μM dye)",Intensity Inside with Dye Average (PGL-3 condensates; 10 μM dye),Intensity Inside with Dye 1 (PGL-3 condensates; 10 μM dye),Intensity Inside with Dye 2 (PGL-3 condensates; 10 μM dye),Intensity Inside with Dye 3 (PGL-3 condensates; 10 μM dye),Intensity Inside Dye-No Dye (PGL-3 condensates),Intensity Outside with Dye Average (PGL-3 condensates; 10 μM dye),Intensity Outside with Dye 1 (PGL-3 condensates; 10 μM dye),Intensity Outside with Dye 2 (PGL-3 condensates; 10 μM dye),Intensity Outside with Dye 3 (PGL-3 condensates; 10 μM dye),Intensity Outside (Dye-No Dye) (PGL-3 condensates),Ratio of intensity inside:outside FUS-SNAP Condensates Day 1 (FUS-SNAP condensates),Intensity Inside with Dye Average (FUS-SNAP condensates),Intensity Inside with Dye 1 (FUS-SNAP condensates),Intensity Inside with Dye 2 (FUS-SNAP condensates),Intensity Inside with Dye 3 (FUS-SNAP condensates),Intensity Inside Dye-No Dye (FUS-SNAP condensates),Intensity Outside with Dye Average (FUS-SNAP condensates),Intensity Outside with Dye 1 (FUS-SNAP condensates),Intensity Outside with Dye 2 (FUS-SNAP condensates),other results
6-[Fluorescein-5(6)-carboxamido]-hexanoic acid [Dye 8],1.0,3538.6,3527.5,3608.1,3480.3,3392.1,3496.8,3491.4,3551.4,3447.6,3391.4,1.7,5354.9,5285.1,5631.6,5148.0,5219.7,3178.8,3064.0,3267.0,"Ratio of FUS-SNAP:PGL-3 [1]: 1.6; Ratio of intensity inside:outside PGL-3 Condensates Day 1 (PGL-3 condensates; I-in:I-out, 10 μM dye): 1.0; Ratio of intensity inside:outside PGL-3 Condensates Average (PGL-3 condensates; I-in:I-out, average of two days, 10 μM dye): 1.0; Ratio of intensity inside:outside FUS-SNAP Condensates Day 2 (FUS-SNAP condensates): 1.6; Ratio of intensity inside:outside FUS-SNAP Condensates Average (FUS-SNAP condensates): 1.6; Intensity Outside with Dye 3 (FUS-SNAP condensates): 3205.5; Intensity Outside (Dye-No Dye) (FUS-SNAP condensates): 3074.8"
"CC(=O)Oc1ccc2c(c1)Oc1cc(OC(C)=O)ccc1C21OC(=O)c2ccccc21 [Dye 9, Fluorescein diacetate]",−0.4,828.6,824.1,801.2,860.4,231.3,269.2,269.6,264.9,273.2,106.3,1.9,6034.1,5836.4,6036.1,6229.9,1821.5,1485.0,1487.5,1414.8,"Ratio of intensity inside:outside PGL-3 Condensates Day 1 (PGL-3 condensates; I-in:I-out, 10 μM dye): 2.2; Ratio of intensity inside:outside FUS-SNAP Condensates Day 2 (FUS-SNAP condensates): 1.5; Ratio of intensity inside:outside FUS-SNAP Condensates Average (FUS-SNAP condensates): 1.7; Intensity Outside with Dye 3 (FUS-SNAP condensates): 1552.6; Intensity Outside (Dye-No Dye) (FUS-SNAP condensates): 934.8"
"O=C1OC2(c3ccc(O[C@@H]4O[C@H](CO)[C@H](O)[C@H](O)[C@H]4O)cc3Oc3cc(O[C@@H]4O[C@H](CO)[C@H](O)[C@H](O)[C@H]4O)ccc32)c2ccccc21 [Dye 12, Fluorescein di(β-D-galacto-pyranoside)]",1.9,690.1,689.4,656.9,723.9,92.8,206.4,208.4,203.2,207.7,43.5,−2.3,478.0,456.2,508.6,469.3,−19.5,148.6,150.1,142.8,"Ratio of intensity inside:outside PGL-3 Condensates Day 1 (PGL-3 condensates; I-in:I-out, 10 μM dye): 2.1; Intensity Outside with Dye 3 (FUS-SNAP condensates): 152.9; Intensity Outside (Dye-No Dye) (FUS-SNAP condensates): 8.5"
"CC/N=c1/cc2oc3cc(NCC)c(C)cc3c(-c3ccccc3C(=O)NCCOCCOCCN)c-2cc1C.O=C(O)C(F)(F)F [Dye 15, N-(8-Amino-3,6-dioxaoctyl)-rhodamine 6G-amide bis(trifluoroacetate)]",3.3,6487.9,6831.9,6829.0,5802.8,1228.1,1263.8,1289.1,1266.2,1236.3,555.7,70.8,3480.0,3084.2,3756.7,3599.3,−732.6,539.8,559.0,527.6,Intensity Outside with Dye 3 (FUS-SNAP condensates): 532.7; Intensity Outside (Dye-No Dye) (FUS-SNAP condensates): −10.3
